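Five compound concentrations were applied to cells in 96-well plates for 48 hours; endpoints were derived by simple linear interpolation of the resulting dose-response curve. Here, GI50 denotes the concentration required for 50% inhibition of growth. TGI: concentration producing complete growth inhibition.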
Columns and labels:
Assay in all cases: NCI tumour cell line growth inhibition, 48 h
HCT-116 colon = test system: HCT-116 colon
TK-10 renal = test system: TK-10 renal
EKVX NSCLC = test system: EKVX NSCLC
LOX IMVI melanoma = test system: LOX IMVI melanoma
ACHN renal = test system: ACHN renal
COLO 205 colon = test system: COLO 205 colon
HCC-2998 colon = test system: HCC-2998 colon
SK-MEL-5 melanoma = test system: SK-MEL-5 melanoma
CAKI-1 renal = test system: CAKI-1 renal
PC-3 prostate = test system: PC-3 prostate

Compound | TGI (HCT-116 colon) [µM] | TGI (TK-10 renal) [µM] | TGI (EKVX NSCLC) [µM] | TGI (LOX IMVI melanoma) [µM] | TGI (ACHN renal) [µM] | TGI (COLO 205 colon) [µM] | TGI (HCC-2998 colon) [µM] | TGI (SK-MEL-5 melanoma) [µM] | TGI (CAKI-1 renal) [µM] | GI50 (HCT-116 colon) [µM] | GI50 (TK-10 renal) [µM] | GI50 (EKVX NSCLC) [µM] | GI50 (LOX IMVI melanoma) [µM] | GI50 (PC-3 prostate) [µM] | TGI (PC-3 prostate) [µM] | GI50 (ACHN renal) [µM] | GI50 (COLO 205 colon) [µM] | GI50 (SK-MEL-5 melanoma) [µM] | GI50 (CAKI-1 renal) [µM] | GI50 (HCC-2998 colon) [µM]
CCOC(OC(C)=O)[C@@H]1C=C[C@H](C)N(c2ccc([N+](=O)[O-])cc2)O1 (stereo partly drawn) | 2.61 | 14 | 39 | 4.12 | 13 | 27.7 | 26.3 | 13.4 | 24.3 | – | – | – | – | – | – | – | – | – | – | –
CSc1ccc2c(cc1=O)[C@@H](NC(=O)c1cccc([N+](=O)[O-])c1)CCc1cc(O)c(O)c(O)c1-2 | 35.9 | > 100 | > 100 | 32.2 | > 100 | > 100 | > 100 | – | > 100 | – | – | – | – | – | – | – | – | – | – | –
C=C(CCCCC)CN1CCCC1C(C)=O (stereo not drawn) | > 80.9 | > 100 | > 100 | 65.3 | > 85.4 | 32.4 | > 100 | 33.2 | > 92.3 | – | – | – | – | – | – | – | – | – | – | –
Cc1ccc(C)c(N2C(=O)C(=O)C(c3nc4ccccc4s3)/C(=N/N)C2=O)c1 (stereo not drawn) | > 100 | > 100 | > 100 | > 100 | > 100 | > 100 | > 100 | > 100 | > 100 | – | – | – | – | – | – | – | – | – | – | –
COc1cc2cc(OC(C)=O)c3cc4c(cc3c2c(OC)c1OC)OCO4 | > 100 | > 100 | > 100 | > 100 | > 100 | > 100 | > 100 | > 100 | – | – | – | – | – | – | – | – | – | – | – | –
COc1ccc(Cc2c3cc(O)c(=O)cc-3ccn2C)cc1 | > 100 | > 100 | > 100 | 34.5 | > 100 | > 100 | > 100 | > 76.1 | > 100 | – | – | – | – | – | – | – | – | – | – | –
C=CCC1(CN(C)C)CC/C(=C\c2ccc(OC)cc2)C1=O (stereo not drawn) | > 100 | > 100 | > 100 | > 100 | > 100 | > 100 | > 100 | > 100 | – | – | – | – | – | – | – | – | – | – | – | –
CC(=O)Nc1ccc(/C=C/C(=O)c2sc(-c3cccnc3)nc2C)cc1 | – | > 100 | > 100 | > 100 | > 100 | > 100 | > 100 | > 100 | > 100 | – | – | – | – | – | – | – | – | – | – | –
CC1(C)OC2C(CCP(=O)(O)O)OC(c3nc(C(N)=O)cs3)C2O1 (stereo not drawn) | > 100 | > 100 | > 100 | > 100 | > 100 | > 100 | > 100 | – | > 100 | – | – | – | – | – | – | – | – | – | – | –
CCOC(=O)c1cc(C(=O)c2ccc(OC)cc2)n2ccc(/C=C/c3cc[n+](CC(=O)c4ccc(OC)cc4)cc3)cc12 | 3.36 | 5.76 | > 100 | 3.66 | – | – | – | – | – | 1.55 | 2.01 | 2.8 | 1.51 | 2.03 | 5.96 | – | – | – | – | –
Cc1nc([N+](=O)[O-])cn1-c1nc2ccccn2c1[N+](=O)[O-] | > 100 | > 100 | > 100 | – | > 100 | > 100 | > 100 | > 100 | > 100 | – | – | – | – | – | > 100 | – | – | – | – | –
CN(CCS(=O)(=O)N1C(=O)C2CCCN2C(=O)[C@@H]1Cc1ccccc1)C(=O)OCc1ccccc1 (stereo partly drawn) | > 100 | > 100 | > 100 | > 100 | 73.4 | > 100 | > 100 | > 100 | > 100 | – | – | – | – | – | – | – | – | – | – | –
O=C1C=C(Nc2ccc(Cl)cc2Cl)c2ccccc2C1=O | > 100 | > 100 | > 100 | – | > 100 | > 100 | > 100 | – | > 100 | – | – | – | – | – | – | – | – | – | – | –
CN(Cc1ccccc1)Cn1ccnc1 | > 100 | > 100 | > 100 | > 100 | > 100 | > 86.7 | – | > 63.4 | > 100 | – | – | – | – | – | > 100 | – | – | – | – | –
COC(=O)c1cc2c(=O)n(C)c3ccccc3n2c1C(=O)OC | – | 77.4 | 78.2 | > 100 | > 100 | > 100 | > 100 | > 100 | > 100 | – | – | – | – | – | – | – | – | – | – | –
C/C(=N\N=C(N)N)C(CN1CCCCC1)C(c1ccccc1)c1c(O)c2ccccc2oc1=O (stereo not drawn) | > 100 | > 100 | > 100 | > 100 | > 100 | > 100 | > 100 | – | > 100 | – | – | – | – | – | – | – | – | – | – | –
Cc1cnc2n1S(=O)(=O)c1cc(C(=O)Nc3cccc4nsnc34)c(Cl)cc1S2 | 35.6 | 40 | > 100 | > 100 | 85.5 | 54.6 | – | 98.1 | 30.9 | 20.1 | 19.8 | 46.8 | 32.9 | 20.1 | 38.9 | 27.8 | 23 | 26.4 | 16.8 | –
C=C(c1ccc(OC)c(/C=C/C(=O)c2ccc3c(c2)OCO3)c1)c1cc(OC)c(OC)c(OC)c1 | – | > 100 | > 100 | 3.52 | – | > 100 | – | 6.71 | > 100 | – | 4.79 | 4.67 | 1.58 | 2.91 | > 100 | – | 4.15 | 1.97 | 3.02 | –
COC1CCC(OS(C)(=O)=O)C(CO)O1 (stereo not drawn) | > 100 | > 100 | > 100 | > 100 | > 100 | – | > 100 | – | – | – | – | – | – | – | – | – | – | – | – | –
O=C1NC(=C(Cl)Cl)/C(=N/S(=O)(=O)N2CCCCC2)N1 | 3.39 | > 100 | – | 3.58 | 3.42 | 3.88 | 5.22 | – | 3.26 | 1.85 | 4.82 | – | 1.86 | 3.05 | 10.5 | 1.96 | 2.01 | – | 1.77 | 2.28
CCCCCCCCCCCCCCCC1=NCC[N+]1(CCO)CCO | 2.94 | 13.6 | 32.4 | – | 6.64 | 3.68 | 4.19 | 16.1 | 14.6 | 1.59 | 3.55 | 10.2 | – | 1.42 | 3.3 | 2.53 | 1.87 | 4.39 | 3.58 | 1.68

Reference: PubChem BioAssay (NCI)
